This note sets out measurements from BindingDB's records for patent US11026923 (H. Lundbeck, 2021).

In general, IC50 refers to the concentration needed to halve the response being measured.

Assay in all cases: Inhibition Assay
Assay [1] deals with Dual specificity calcium/calmodulin-dependent 3',5'-cyclic nucleotide phosphodiesterase 1A (Human, UniProt P54750).
Description: (§1) Reactions were initiated by addition of the cyclic nucleotide substrate, and reactions were allowed to proceed for 1 hr at room temperature before being terminated through mixing with 20 uL (0.2 mg) yttrium silicate SPA beads (PerkinElmer).
The target in assay [2] is Dual specificity calcium/calmodulin-dependent 3',5'-cyclic nucleotide phosphodiesterase 1B (Homo sapiens, UniProt Q01064).
Dual specificity calcium/calmodulin-dependent 3',5'-cyclic nucleotide phosphodiesterase 1B, sequence (Q01064 whole entry): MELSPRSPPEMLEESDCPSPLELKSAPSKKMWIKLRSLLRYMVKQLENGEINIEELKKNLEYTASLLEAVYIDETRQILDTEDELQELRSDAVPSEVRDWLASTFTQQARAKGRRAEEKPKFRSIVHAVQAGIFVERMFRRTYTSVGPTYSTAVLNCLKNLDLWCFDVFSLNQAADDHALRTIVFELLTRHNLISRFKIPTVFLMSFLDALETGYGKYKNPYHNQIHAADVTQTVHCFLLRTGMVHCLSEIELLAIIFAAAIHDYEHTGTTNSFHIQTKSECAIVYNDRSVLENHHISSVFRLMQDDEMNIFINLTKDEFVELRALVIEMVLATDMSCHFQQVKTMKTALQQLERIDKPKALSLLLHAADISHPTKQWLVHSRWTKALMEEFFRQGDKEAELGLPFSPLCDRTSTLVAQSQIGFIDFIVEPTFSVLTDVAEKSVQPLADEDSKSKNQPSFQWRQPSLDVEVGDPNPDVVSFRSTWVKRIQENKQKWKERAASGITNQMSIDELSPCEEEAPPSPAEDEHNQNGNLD
Description: as §1
For assay [3], the target named is Dual specificity calcium/calmodulin-dependent 3',5'-cyclic nucleotide phosphodiesterase 1C (Human, UniProt Q14123).
Dual specificity calcium/calmodulin-dependent 3',5'-cyclic nucleotide phosphodiesterase 1C, sequence (Q14123 whole entry): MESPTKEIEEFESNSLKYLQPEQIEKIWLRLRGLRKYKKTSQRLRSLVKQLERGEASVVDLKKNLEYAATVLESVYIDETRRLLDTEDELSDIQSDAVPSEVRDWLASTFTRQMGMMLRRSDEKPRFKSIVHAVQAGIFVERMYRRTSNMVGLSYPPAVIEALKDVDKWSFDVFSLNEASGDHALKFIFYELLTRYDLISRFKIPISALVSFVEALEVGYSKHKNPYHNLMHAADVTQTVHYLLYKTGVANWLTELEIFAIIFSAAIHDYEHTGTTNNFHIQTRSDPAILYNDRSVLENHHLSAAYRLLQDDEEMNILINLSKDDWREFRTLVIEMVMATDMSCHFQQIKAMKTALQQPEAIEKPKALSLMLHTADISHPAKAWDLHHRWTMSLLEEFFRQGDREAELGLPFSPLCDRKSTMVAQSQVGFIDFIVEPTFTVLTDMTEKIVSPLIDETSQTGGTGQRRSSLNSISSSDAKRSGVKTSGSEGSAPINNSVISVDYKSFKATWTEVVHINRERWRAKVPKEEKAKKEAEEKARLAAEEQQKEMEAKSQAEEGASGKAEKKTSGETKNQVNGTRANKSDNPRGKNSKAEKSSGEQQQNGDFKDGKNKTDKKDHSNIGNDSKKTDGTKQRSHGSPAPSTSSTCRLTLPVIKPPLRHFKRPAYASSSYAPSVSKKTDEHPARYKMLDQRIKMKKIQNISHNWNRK
Description: as §1

Dual specificity calcium/calmodulin-dependent 3',5'-cyclic nucleotide phosphodiesterase 1A, sequence (P54750 whole entry): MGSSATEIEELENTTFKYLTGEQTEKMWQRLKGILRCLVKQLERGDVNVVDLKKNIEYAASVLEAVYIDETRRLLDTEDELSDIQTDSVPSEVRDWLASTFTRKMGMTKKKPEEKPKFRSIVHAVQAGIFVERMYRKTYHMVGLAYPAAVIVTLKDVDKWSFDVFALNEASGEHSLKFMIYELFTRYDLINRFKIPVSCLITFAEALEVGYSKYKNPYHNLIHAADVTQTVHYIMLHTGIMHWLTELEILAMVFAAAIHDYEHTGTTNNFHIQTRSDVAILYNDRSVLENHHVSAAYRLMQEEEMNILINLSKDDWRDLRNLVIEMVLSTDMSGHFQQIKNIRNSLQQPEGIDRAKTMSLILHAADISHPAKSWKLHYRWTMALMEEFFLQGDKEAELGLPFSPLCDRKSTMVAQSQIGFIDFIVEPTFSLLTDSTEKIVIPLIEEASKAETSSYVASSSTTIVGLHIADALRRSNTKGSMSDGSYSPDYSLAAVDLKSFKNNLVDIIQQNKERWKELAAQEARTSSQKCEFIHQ

With `CC1=NN(C(C)C)/C(=C(/C=C/c2cnn(C)c2C)NCc2cnn(C)c2)C1` [US11026923, Example 66], the IC50 stood at 210 nM in assay [1], 59 nM in assay [2] and 220 nM in assay [3].
The like results for `CC1=NN(C(C)C)/C(=C(/C=C/c2ccccc2)NCc2cnn(C)c2)C1` [US11026923, Example 64] were, in that order, 52 nM, 12 nM and 47 nM.
In the same order, the values of `CC1=NN(C(C)C)/C(=C(/C=C/c2cn(C)nc2C)NCc2cnn(C)c2)C1` [US11026923, Example 61] are 550 nM, 120 nM and 680 nM.
As to `COc1ncccc1/C=C/C(NCc1cnn(C)c1)=C1\CC(C)=NN1C(C)C` [US11026923, Example 62], the IC50 in assay [1] is 16 nM; in assay [2], 2.4 nM; in assay [3], 21 nM.
`CC1=NN(C(C)C)/C(=C(/C=C/c2ccsc2C)NCc2cnn(C)c2)C1` [US11026923, Example 65]: the IC50 in assay [1] came out at 7.9 nM; in assay [2], 1.2 nM.
Consider `COc1ccccc1/C=C/C(NCc1cnn(C)c1)=C1\CC(C)=NN1C(C)C` [US11026923, Example 63], for which the IC50 in assay [1] is 64 nM; in assay [2], 9.4 nM; in assay [3], 20 nM.
